Tests used:
[1] = system: SHIP-1; test: SHIP-1 gene and protein expression in tumors of HPC mice; assay type: in vivo, mouse; conditions: API 25 mg/kg IP 3 times per week for 3-4 weeks, vs vehicle
Experimental: Earlier studies have shown the anti-tumor activity of API in pre-clinical experimental models of cancer^41, 62-68. The inventors have reported that API increased survival and reduced tumor growth in a heterotopic (H) mouse model of PC (HPC)^55. To investigate if API targets miR-155 and regulates SHIP-1 in the TME of an HPC mouse model, HPC mice were treated with API at a dose of 25 mg/kg (IP) 3 times per week for 3-4 weeks.
All female C57BL/6 mice (6-8 weeks of age) described in this study were purchased from Envigo (Indianapolis, IN, USA) and were acclimatize for one week in a pathogen-free animal facility (University of South Florida (USF) vivarium) before injections with PC cells. To generate heterotopic pancreatic cancer (HPC) models, mice were subcutaneously injected with 1.5×10^5 murine Panc02 (HPC mice) or 5×10^6 murine UN-KC-6141 cells (KC-HPC mice), in sterile 1× phosphate buffer saline (PBS), in the lower ventral abdomen, while control (CTRL) mice received sterile 1×PBS. […]
Isolation of total RNA from digested pancreatic tumors and BM cells was performed using a RNeasy Mini Kit (Qiagen), according to the manufacturer's instructions. RT-PCR of quantified and normalized total RNA was performed using a High-Capacity cDNA RT Kit with an RNase Inhibitor (Applied Biosystems), according to the manufacturer's instructions. […]

[2] = system: UN-KC-6141 tumors; test: Tumor growth in KC-HPC mice; assay type: in vivo, mouse; conditions: API 25 mg/kg IP three times per week
Experimental: To build on these findings, the inventors then used a novel pancreatic cancer cell line, UN-KC-6141, that resembles human PC due to its expression of a mutated Kras and generated mice harboring these tumor cells, called KC-HPC mice. Such mice were treated with API at a dose of 25 mg/kg (IP) three times per week for 17 days. The inventors examined if API also targets miR-155 and regulates SHIP-1 in the tumors from KC-HPC mouse model. […] All female C57BL/6 mice (6-8 weeks of age) described in this study were purchased from Envigo (Indianapolis, IN, USA) and were acclimatize for one week in a pathogen-free animal facility (University of South Florida (USF) vivarium) before injections with PC cells. To generate heterotopic pancreatic cancer (HPC) models, mice were subcutaneously injected with 1.5×10^5 murine Panc02 (HPC mice) or 5×10^6 murine UN-KC-6141 cells (KC-HPC mice), in sterile 1× phosphate buffer saline (PBS), in the lower ventral abdomen, while control (CTRL) mice received sterile 1×PBS. Once tumors where palpable, API (25 mg/kg, 100 μL volume) treatments (HPC-API and KC-HPC-API), via intraperitoneal (IP) injections, were started while CTRL, HPC and KC-HPC mice received sterile PBS (vehicle) three times per week until the end of the study^12, 55. The HPC models were euthanized 21-28 days post-injection, while the KC-HPC models were euthanized 16-17 days post-injection.

O=c1cc(-c2ccc(O)cc2)oc2cc(O)cc(O)c12 [API, 40,5,7-Trihydroxyflavone, 5,7-Dihydroxy-2-(4-hydroxyphenyl)-4-benzopyrone]
SHIP-1 gene expression in tumor [1]: increased
SHIP-1 protein expression in tumor [1]: increased
tumor burden (tumor volume, tumor area) [2]: significantly reducing

— patent US20240415804A1, “METHOD OF TREATING PANCREATIC CANCER” (University of South Florida, priority 2022, published 2024)
